Source: patent US10221163B2 (priority 2015, dated 2019)
Like-named read-outs stand apart in the source and are kept apart here.

How the values were obtained:
[1] = system: Pseudomonas aeruginosa efflux+ (MB9798), IMP-1; assay type: cell-based; settings: concentration restoring susceptibility to imipenem at 2 μg/mL in the presence of a class A, C, D serine β-lactamase inhibitor closely related to relebactam
How it was run: (§1)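 Microbroth MIC tests in PAO1-background strains with fixed imipenem and/or ceftazidime, usually at the CLSI breakpoint, plus fixed class A/C β-lactamase inhibitor against AmpC. MBL inhibitor titrated; concentration restoring susceptibility recorded and compared as fold difference between efflux+ MB9798 and efflux− MB9799.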

[2] = system: Pseudomonas aeruginosa MB9798 vs MB9799; settings: ratio MITC95 PA_9798/MITC95 PA_9799
How it was run: as §1

[3] = system: Pseudomonas aeruginosa efflux− (MB9799), IMP-1; assay type: cell-based; settings: concentration restoring susceptibility to imipenem at 2 μg/mL in the presence of a class A, C, D serine β-lactamase inhibitor closely related to relebactam
How it was run: as §1

VIM-1 = VIM-1 (Pseudomonas aeruginosa (strain ATCC 15692 / DSM 22644 / CIP 104116 / JCM 14847 / LMG 12228 / 1C / PRS 101 / PAO1), UniProt A0A0F7KYQ8); assay: biochemical; settings: CCF2-FA substrate, 30 pM enzyme, 2 hours at 25° C.
How it was run: (§2)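 Two-hour, 25° C incubation of enzyme with inhibitor and CCF2-FA (7-hydroxycoumarin–cephalosporin–fluorescein). Fluorescence read-out; IC50 via 4-parameter fit.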

[4] = system: Escherichia coli expressing NDM-1 (CLB30005, CLB30016); assay type: cell-based; settings: with imipenem 1 μg/ml; 95% inhibition of bacterial growth
How it was run: (§3)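 Clinical isolates (E. coli NDM-1, S. marcescens IMP-1, K. pneumoniae VIM-1) were diluted 1:100 from saline suspension into 1.1×CAMHB and exposed to test compound with imipenem at 1 μg/ml. Plates were incubated at 35° C for 22 hours to 24 hours, and growth was read by absorbance.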

[5] = system: Klebsiella pneumoniae expressing VIM-1 (IHMA599644); assay type: cell-based; settings: with imipenem 1 μg/ml; 95% inhibition of bacterial growth
How it was run: as §3

[6] = system: Serratia marcescens expressing IMP-1 (CL5741); assay type: cell-based; settings: with imipenem 1 μg/ml; 95% inhibition of bacterial growth
How it was run: as §3

IMP-1 = IMP-1 (Serratia marcescens, UniProt P52699); assay: biochemical; assay type: biochemical; settings: fluorescence assay, CCF2-FA substrate, 2 pM enzyme, 2 hours at 25° C.; read-out: IMP-1 IC50
Sequence of IMP-1 (P52699 whole entry, looked up, species assumed): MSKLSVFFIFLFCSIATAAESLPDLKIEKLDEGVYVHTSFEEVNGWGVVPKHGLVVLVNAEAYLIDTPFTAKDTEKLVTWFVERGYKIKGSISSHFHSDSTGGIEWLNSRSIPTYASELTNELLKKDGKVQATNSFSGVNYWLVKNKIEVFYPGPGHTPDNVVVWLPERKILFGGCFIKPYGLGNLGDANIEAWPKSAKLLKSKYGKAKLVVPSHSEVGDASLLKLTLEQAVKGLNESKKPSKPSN
How it was run: as §2

NDM-1 = NDM-1 (Klebsiella pneumoniae, UniProt C7C422); assay: biochemical; assay type: biochemical; settings: fluorescence assay, CCF2-FA substrate, 1 pM enzyme, 2 hours at 25° C.; read-out: NDM-1 IC50
Sequence of NDM-1 (C7C422 whole entry, looked up, species assumed): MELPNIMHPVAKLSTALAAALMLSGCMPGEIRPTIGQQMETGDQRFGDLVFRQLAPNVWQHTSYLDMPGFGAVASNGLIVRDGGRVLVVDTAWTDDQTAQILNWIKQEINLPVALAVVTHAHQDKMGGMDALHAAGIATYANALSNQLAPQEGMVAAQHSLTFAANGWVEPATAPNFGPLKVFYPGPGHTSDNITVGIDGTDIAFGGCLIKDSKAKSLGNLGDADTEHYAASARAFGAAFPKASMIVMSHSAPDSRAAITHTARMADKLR
How it was run: as §2

[7] = fluorescence assay, read-out: VIM-1 IC50

Compound | P. aeruginosa expressing IMP-1, efflux + (MB9798) MITC95 [1] | Efflux ratio [2] | P. aeruginosa expressing IMP-1, efflux − (MB9799) MITC95 [3] | IC50 (VIM-1; [7]) | Escherichia coli expressing NDM-1 (CLB30016) MITC95 [4] | Klebsiella pneumoniae expressing VIM-1 (IHMA599644) MITC95 [5] | Serratia marcescens expressing IMP-1 (CL5741) MITC95 [6] | IC50 (IMP-1) | IC50 (NDM-1) | IC50 (VIM-1; VIM-1 IC50, fluorescence assay)
Nc1nc2c(-c3ccc(S(=O)(=O)N4CCC(F)(F)C4)c(S(N)(=O)=O)c3-c3nnn[nH]3)cccc2s1 [Example 43, 3-(2-amino-1,3-benzothiazol-4-yl)-6-[(3,3-difluoropyrrolidin-1-yl)sulfonyl]-2-(1H-tetrazol-5-yl)benzenesulfonamide] | 100 µM | 63.98 | 1.563 µM | 1860 pM | 25 µM | 100 µM | 6.25 µM | 1230 pM | 2070 pM | –
Nc1nc2c(-c3ccc(S(=O)(=O)N4CC[S+]([O-])CC4)c(S(N)(=O)=O)c3-c3nnn[nH]3)cccc2s1 [Example 44, 3-(2-amino-1,3-benzothiazol-4-yl)-6-[(1-oxidothiomorpholin-4-yl)sulfonyl]-2-(1H-tetrazol-5-yl)benzenesulfonamide] | 12.5 µM | 2.00 | 6.25 µM | 2060 pM | 25 µM | 25 µM | 6.25 µM | 2220 pM | 872 pM | –
Nc1nc2c(-c3ccc(S(=O)(=O)NCC4(F)CNC4)c(S(N)(=O)=O)c3-c3nnn[nH]3)cccc2s1 [Example 46, 4-(2-amino-1,3-benzothiazol-4-yl)-N^1-[(3-fluoroazetidin-3-yl)methyl]-3-(1H-tetrazol-5-yl)benzene-1,2-disulfonamide] | 0.7813 µM | 0.50 | 1.563 µM | 321 pM | 6.25 µM | 3.125 µM | 1.563 µM | 289 pM | 57.2 pM | –
NCC(F)(F)CNS(=O)(=O)c1ccc(-c2cccc3sc(N)nc23)c(-c2nnn[nH]2)c1S(N)(=O)=O [Example 47, 4-(2-amino-1,3-benzothiazol-4-yl)-N1-(3-amino-2,2-difluoropropyl)-3-(1H-tetrazol-5-yl)benzene-1,2-disulfonamide] | 3.125 µM | 1.00 | 3.125 µM | 304 pM | 6.25 µM | 12.5 µM | 3.125 µM | 484 pM | 65.8 pM | –
Nc1nc2c(-c3ccc(S(=O)(=O)N4CC5(CCNC5)C4)c(S(N)(=O)=O)c3-c3nnn[nH]3)cccc2s1 [Example 48, 3-(2-amino-1,3-benzothiazol-4-yl)-6-(2,6-diazaspiro[3.4]oct-2-ylsulfonyl)-2-(1H-tetrazol-5-yl)benzenesulfonamide] | 1.563 µM | 1.00 | 1.563 µM | 490 pM | 6.25 µM | 3.125 µM | 3.125 µM | 951 pM | 258 pM | –
Nc1nc2c(-c3ccc(S(=O)(=O)NCCC(N)C(F)(F)F)c(S(N)(=O)=O)c3-c3nnn[nH]3)cccc2s1 (stereo not drawn) [Example 49, 4-(2-amino-1,3-benzothiazol-4-yl)-N1-(3-amino-4,4,4-trifluorobutyl)-3-(1H-tetrazol-5-yl)benzene-1,2-disulfonamide] | 50 µM | 8.00 | 6.25 µM | 328 pM | 25 µM | 25 µM | 12.5 µM | 413 pM | 67.3 pM | –
Nc1nc2c(-c3ccc(S(=O)(=O)N[C@H]4CO[C@H]5[C@H]4OC[C@H]5O)c(S(N)(=O)=O)c3-c3nnn[nH]3)cccc2s1 [Example 50, 2-({[4-(2-amino-1,3-benzothiazol-4-yl)-2-sulfamoyl-3-(1H-tetrazol-5-yl)phenyl]sulfonyl}amino)-1,4:3,6-dianhydro-2-deoxy-D-allitol] | 12.5 µM | 2.00 | 6.25 µM | – | 25 µM | 25 µM | 12.5 µM | 263 pM | 40.8 pM | 250 pM
CC(CN1CCOCC1)NS(=O)(=O)c1ccc(-c2cccc3sc(N)nc23)c(-c2nnn[nH]2)c1S(N)(=O)=O (stereo not drawn) [Example 51, 4-(2-amino-1,3-benzothiazol-4-yl)-N1-(1-methyl-2-morpholin-4-ylethyl)-3-(1H-tetrazol-5-yl)benzene-1,2-disulfonamide] | 25 µM | 4.00 | 6.25 µM | 441 pM | 25 µM | 25 µM | 12.5 µM | 393 pM | 97 pM | –
CN(C)CCCN(C)S(=O)(=O)c1ccc(-c2cccc3sc(N)nc23)c(-c2nnn[nH]2)c1S(N)(=O)=O [Example 52, 4-(2-amino-1,3-benzothiazol-4-yl)-N1-[3-(dimethylamino)propyl]-N~1~-methyl-3-(1H-tetrazol-5-yl)benzene-1,2-disulfonamide] | 6.25 µM | 2.00 | 3.125 µM | 25300 pM | 12.5 µM | 50 µM | 3.125 µM | 5940 pM | 15300 pM | –
